{
  "source": "paper PMC12337082",
  "about": "(Journal of Biochemical and Molecular Toxicology, 2025)",
  "key": {"PGE2 release [1]": {"system": "PGE2 release", "assay": "PGE2 ELISA, MCF‐7", "assay_type": "cell-based, human", "conditions": "MCF‐7, 0.5 mM, 24 h", "protocol": "(§1) PGE2 ELISA kit (ENZO, ADI‐900‐001) was used to determine prostaglandin synthesis levels. MCF‐7 and MDA‐MB‐231 breast cancer cells were cultured at a density of 1 × 10^6 cells/well in a 6‐well culture dish. […] Following 24 h of incubation, the medium was replaced with a fresh one, 10 µM arachidonic acid was added, and it was further incubated for 1 h. The PGE2 levels were determined according to the kit protocol."}, "[2]": {"system": "MCF‐7, MDA‐MB‐231, and L‐929", "assay": "MTT cell viability assay, statements over all cell lines", "assay_type": "cell-based", "excerpt": "(§2) MCF‐7, MDA‐MB‐231, and L‐929 mouse fibroblast cell lines were obtained from the American Type Culture Collection (ATCC, Manassas, Virginia, USA). MCF‐7 is a hormone‐responsive, differentiated mammary epithelium cell line with an ER+, PR+, and HER2‐ pattern (ATCC, HTB‐22). MDA‐MB‐231 is a triple‐negative differentiated mammary epithelium cell line (ATCC, HTB‐26). The L‐929 mouse fibroblast cell line is derived from the normal subcutaneous connective tissue of a mouse and is commonly used in cytotoxicity assays (ATCC, CCL‐1). All cell lines were cultured in DMEM medium (Dulbecco's Modified Eagle Medium, Gibco), supplemented with 10% fetal bovine serum (Gibco), 1% glutamine, and penicillin/streptomycin (Gibco) in a humidified atmosphere containing 5% CO2 at 37°C. Cell viability was tested using Trypan blue staining.\n(§3) The MTT [3‐(4,5‐dimethylthiazol‐2‐yl)−2,5‐diphenyltetrazolium bromide] assay is a colorimetric assay for determining cell metabolic activity. In the MTT assay, the yellow dye MTT that dissolves in water is changed by mitochondrial reductase into a purple formazan that is non‐soluble. The water‐insoluble formazan produced is solubilized in a solubilization buffer, and absorbances are detected.\n(§4) In 96‐well plates, the cells were cultivated at a density of 5 × 10^3 cells/well using 100 µL medium. […] 10 μL of the MTT labeling reagent (final concentration 0.5 mg/mL) were added to each well at the end of the incubation periods, and the wells were incubated for an additional 4 h. Next, each well received 100 μL of solubilization buffer (10% SDS in 0.01 M HCl) and was overnight incubated, and the absorbance of formazan products was evaluated at 550 nm using a multi‐mode microplate reader (Synergy H1, Biotech Instruments Inc., Vermont, USA). The results were normalized relative to the absorbances of calculated percent concentrations of DMSO. All tests involved three replicates with three independent experiments.\nAll statistical evaluations, including t‐tests and IC50 values, were calculated using the GraphPad Prism software tool (v6.0, GraphPad Software Inc., San Diego, USA). […]"}, "[3]": {"system": "L‐929 mouse fibroblast cell line", "assay": "MTT cell viability assay, L‐929 control fibroblasts", "assay_type": "cell-based", "conditions": "Mus musculus", "excerpt": "as §2, §3, §4\n(§5) All statistical evaluations, including t‐tests and IC50 values, were calculated using the GraphPad Prism software tool (v6.0, GraphPad Software Inc., San Diego, USA). Statistical significance was defined as p ˂ 0.05 (*p < 0.05, **p < 0.01, ***p < 0.001, ****p < 0.0001)."}, "SSC‐9 skin cancer": {"system": "SSC‐9 skin cancer", "design": "method as in Abo Aasy et al. (2019) [62]", "conditions": "24 h, ref Abo Aasy et al. (2019) [62]; cited from earlier work"}, "PGE2 release [4]": {"system": "PGE2 release", "assay": "PGE2 ELISA, MDA‐MB‐231", "assay_type": "cell-based, human", "conditions": "MDA‐MB‐231, 0.5 mM, 24 h", "protocol": "as §1"}, "MDA‐MB‐231 [5]": {"system": "MDA‐MB‐231", "assay": "MTT cell viability assay, MDA‐MB‐231", "assay_type": "cell-based, human", "conditions": "Homo sapiens, MTT", "excerpt": "as §2, §3, §4, §5"}, "[6]": {"system": "MCF‐7, MDA‐MB‐231, and L‐929 cells", "assay": "Mitochondrial membrane potential (JC‐1) apoptosis assay, statements over all cell lines", "assay_type": "cell-based", "conditions": "MMP assay, similar levels for all cells including L‐929", "protocol": "Apoptosis was also investigated by evaluating mitochondrial membrane potential changes (MMP assay). MCF‐7, MDA‐MB‐231, and L‐929 cells were stained with JC‐1 dye according to the manufacturer's protocols (JC‐1 MMP Assay Kit, KA1324, Abnova). The apoptotic to healthy cell ratio was calculated using absorbances collected from two different fluorescence channels (535/595 for healthy cells, 485/535 for apoptotic cells) (Synergy H1, Biotech Instruments Inc., Vermont, USA)."}, "MDA‐MB‐231 [7]": {"system": "MDA‐MB‐231", "assay": "Annexin V/PI staining, Tali image‐based cytometry, MDA‐MB‐231", "assay_type": "cell-based, human", "conditions": "MDA‐MB‐231, 24 h", "excerpt": "(§6) To assess apoptosis and cell death, cells were stained with Annexin V‐PI dyes (Tali Apoptosis Kit‐Annexin V Alexa Fluor 488 and PI‐, Molecular Probes A10788, Invitrogen) and quantified using Tali Image‐Based Cytometer (Invitrogen) and fluorescence microscopy (Olympus CKX41 Inverted Phase Contrast Fluorescence Microscope furbished with reflected fluorescence illuminator CKX‐RFA).\n(§7) To assess whether our compounds produce their cytotoxic effects through induction of apoptosis, apoptosis was investigated using Annexin V/PI labeling and MMP methods (Figures 4A−C). In addition, by utilizing TALI image‐based cytometry and fluorescent microscopy, the number of cells was analyzed for different concentrations of agents (Table 4)."}, "MCF‐7 [8]": {"system": "MCF‐7", "assay": "MTT cell viability assay, MCF‐7", "assay_type": "cell-based, human", "conditions": "Homo sapiens, MCF7, MTT", "excerpt": "as §2, §3, §4, §5"}, "Leukemia": {"system": "Leukemia", "design": "method as in Nakamura et al. (2004) [60]", "conditions": "72 h, ref Nakamura et al. (2004) [60]; cited from earlier work"}, "MCF‐7 [9]": {"system": "MCF‐7", "assay": "Annexin V/PI staining, Tali image‐based cytometry, MCF‐7", "assay_type": "cell-based, human", "conditions": "MCF‐7, 24 h", "excerpt": "as §6, §7"}},
  "data": [
    {"smiles": "CCc1cccc2c3c([nH]c12)C(CC)(CC(=O)O)OCC3", "note": "(stereo not shown) [Etodolac, 2‐(1,8‐diethyl‐1,3,4‐tetrahydropyrano [3,4‐b]indol‐1‐yl) acetic acid, reference compound]", "values": [
      {"measurement": "Inhibition of PGE2 release", "setting": "PGE2 release [1]", "result": 57, "unit": "%"},
      {"measurement": "Concentration at which viability of the cells was reduced", "setting": "[2]; all cell lines including healthy controls", "result": "0.2−0.5 mM"},
      {"measurement": "IC50", "setting": "[2]; read-out: IC50 range", "result": "500 to 1000", "unit": "µM"},
      {"measurement": "IC50", "setting": "[3]; L929, 24 h, L‐929, 24 h", "result": "735 ± 3.7", "unit": "µM"},
      {"measurement": "IC50", "setting": "[3]; L929, 48 h, L‐929, 48 h", "result": "751 ± 9.5", "unit": "µM"},
      {"measurement": "IC50", "setting": "[3]; L929, 72 h, L‐929, 72 h", "result": "622 ± 4.7", "unit": "µM"},
      {"measurement": "IC50", "setting": "SSC‐9 skin cancer", "result": 983, "unit": "µM"},
      {"measurement": "Inhibition of PGE2 release", "setting": "PGE2 release [4]", "result": 38, "unit": "%"},
      {"measurement": "IC50", "setting": "MDA‐MB‐231 [5]; MDA-MB-231, 24 h, MDA‐MB‐231, 24 h", "result": "740 ± 1.65", "unit": "µM"},
      {"measurement": "IC50", "setting": "MDA‐MB‐231 [5]; MDA-MB-231, 48 h, MDA‐MB‐231, 48 h", "result": "699 ± 4.61", "unit": "µM"},
      {"measurement": "IC50", "setting": "MDA‐MB‐231 [5]; MDA-MB-231, 72 h, MDA‐MB‐231, 72 h", "result": "578 ± 3.65", "unit": "µM"},
      {"measurement": "Concentration after which apoptotic increases became detectable", "setting": "[6]", "result": "0.5−1.0 mM"},
      {"measurement": "Apoptotic cells", "setting": "MDA‐MB‐231 [7]; 100 µM", "result": 1, "unit": "%"},
      {"measurement": "Dead cells", "setting": "MDA‐MB‐231 [7]; 100 µM", "result": 4, "unit": "%"},
      {"measurement": "Live cells", "setting": "MDA‐MB‐231 [7]; 100 µM", "result": 95, "unit": "%"},
      {"measurement": "Apoptotic cells", "setting": "MDA‐MB‐231 [7]; 250 µM", "result": 1, "unit": "%"},
      {"measurement": "Dead cells", "setting": "MDA‐MB‐231 [7]; 250 µM", "result": 5, "unit": "%"},
      {"measurement": "Live cells", "setting": "MDA‐MB‐231 [7]; 250 µM", "result": 94, "unit": "%"},
      {"measurement": "Apoptotic cells", "setting": "MDA‐MB‐231 [7]; 500 µM", "result": 6, "unit": "%"},
      {"measurement": "Dead cells", "setting": "MDA‐MB‐231 [7]; 500 µM", "result": 10, "unit": "%"},
      {"measurement": "Live cells", "setting": "MDA‐MB‐231 [7]; 500 µM", "result": 84, "unit": "%"},
      {"measurement": "Apoptotic cells", "setting": "MDA‐MB‐231 [7]; 1000 µM", "result": 11, "unit": "%"},
      {"measurement": "Dead cells", "setting": "MDA‐MB‐231 [7]; 1000 µM", "result": 13, "unit": "%"},
      {"measurement": "Live cells", "setting": "MDA‐MB‐231 [7]; 1000 µM", "result": 76, "unit": "%"},
      {"measurement": "IC50", "setting": "MCF‐7 [8]; MCF‐7, 24 h", "result": "750 ± 4.2", "unit": "µM"},
      {"measurement": "IC50", "setting": "MCF‐7 [8]; MCF‐7, 48 h", "result": "731 ± 1.37", "unit": "µM"},
      {"measurement": "IC50", "setting": "MCF‐7 [8]; MCF‐7, 72 h", "result": "555 ± 2.42", "unit": "µM"},
      {"measurement": "IC50", "setting": "Leukemia", "result": "50 to 100", "unit": "µM"},
      {"measurement": "Apoptotic cells", "setting": "MCF‐7 [9]; 100 µM", "result": 1, "unit": "%"},
      {"measurement": "Dead cells", "setting": "MCF‐7 [9]; 100 µM", "result": 5, "unit": "%"},
      {"measurement": "Live cells", "setting": "MCF‐7 [9]; 100 µM", "result": 94, "unit": "%"},
      {"measurement": "Apoptotic cells", "setting": "MCF‐7 [9]; 250 µM", "result": 2, "unit": "%"},
      {"measurement": "Dead cells", "setting": "MCF‐7 [9]; 250 µM", "result": 6, "unit": "%"},
      {"measurement": "Live cells", "setting": "MCF‐7 [9]; 250 µM", "result": 92, "unit": "%"},
      {"measurement": "Apoptotic cells", "setting": "MCF‐7 [9]; 500 µM", "result": 7, "unit": "%"},
      {"measurement": "Dead cells", "setting": "MCF‐7 [9]; 500 µM", "result": 9, "unit": "%"},
      {"measurement": "Live cells", "setting": "MCF‐7 [9]; 500 µM", "result": 84, "unit": "%"},
      {"measurement": "Apoptotic cells", "setting": "MCF‐7 [9]; 1000 µM", "result": 5, "unit": "%"},
      {"measurement": "Dead cells", "setting": "MCF‐7 [9]; 1000 µM", "result": 8, "unit": "%"},
      {"measurement": "Live cells", "setting": "MCF‐7 [9]; 1000 µM", "result": 87, "unit": "%"}
    ]}
  ]
}
